Laboratory results from ChEMBL document CHEMBL2007661, “Compounds: GSK PKIS; Assays: UNC Frye lab” (2012).
Several values for one entry are separate records, joined by “and”; a condition that tells them apart may be missing. Equal entries are not always repeated.

Experiments:
[1] = molecular target: T1, Inhibitor of nuclear factor kappa-B kinase subunit epsilon (Homo sapiens) (UniProt Q14164); conditions: at 1 µM
T1 sequence (whole entry): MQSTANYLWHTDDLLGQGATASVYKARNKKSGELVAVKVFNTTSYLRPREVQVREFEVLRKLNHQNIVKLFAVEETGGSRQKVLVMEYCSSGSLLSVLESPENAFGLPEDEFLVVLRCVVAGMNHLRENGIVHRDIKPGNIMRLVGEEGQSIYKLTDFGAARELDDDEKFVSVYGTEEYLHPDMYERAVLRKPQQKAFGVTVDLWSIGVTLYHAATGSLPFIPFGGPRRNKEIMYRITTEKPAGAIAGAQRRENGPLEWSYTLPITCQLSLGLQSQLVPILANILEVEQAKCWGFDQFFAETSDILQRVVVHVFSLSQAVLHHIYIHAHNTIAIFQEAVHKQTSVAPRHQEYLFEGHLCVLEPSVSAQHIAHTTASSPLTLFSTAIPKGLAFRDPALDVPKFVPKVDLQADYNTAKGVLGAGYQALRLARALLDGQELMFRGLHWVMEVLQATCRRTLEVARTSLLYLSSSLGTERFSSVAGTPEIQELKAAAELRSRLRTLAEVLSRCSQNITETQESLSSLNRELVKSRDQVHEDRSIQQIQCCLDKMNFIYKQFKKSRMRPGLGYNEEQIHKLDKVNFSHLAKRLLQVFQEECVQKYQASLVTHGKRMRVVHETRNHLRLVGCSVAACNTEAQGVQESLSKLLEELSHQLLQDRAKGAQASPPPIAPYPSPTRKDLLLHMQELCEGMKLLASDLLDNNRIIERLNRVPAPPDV

[2] = molecular target: T2, Tyrosine-protein kinase Mer (Homo sapiens) (UniProt Q12866); conditions: at 10 µM
T2 sequence (whole entry): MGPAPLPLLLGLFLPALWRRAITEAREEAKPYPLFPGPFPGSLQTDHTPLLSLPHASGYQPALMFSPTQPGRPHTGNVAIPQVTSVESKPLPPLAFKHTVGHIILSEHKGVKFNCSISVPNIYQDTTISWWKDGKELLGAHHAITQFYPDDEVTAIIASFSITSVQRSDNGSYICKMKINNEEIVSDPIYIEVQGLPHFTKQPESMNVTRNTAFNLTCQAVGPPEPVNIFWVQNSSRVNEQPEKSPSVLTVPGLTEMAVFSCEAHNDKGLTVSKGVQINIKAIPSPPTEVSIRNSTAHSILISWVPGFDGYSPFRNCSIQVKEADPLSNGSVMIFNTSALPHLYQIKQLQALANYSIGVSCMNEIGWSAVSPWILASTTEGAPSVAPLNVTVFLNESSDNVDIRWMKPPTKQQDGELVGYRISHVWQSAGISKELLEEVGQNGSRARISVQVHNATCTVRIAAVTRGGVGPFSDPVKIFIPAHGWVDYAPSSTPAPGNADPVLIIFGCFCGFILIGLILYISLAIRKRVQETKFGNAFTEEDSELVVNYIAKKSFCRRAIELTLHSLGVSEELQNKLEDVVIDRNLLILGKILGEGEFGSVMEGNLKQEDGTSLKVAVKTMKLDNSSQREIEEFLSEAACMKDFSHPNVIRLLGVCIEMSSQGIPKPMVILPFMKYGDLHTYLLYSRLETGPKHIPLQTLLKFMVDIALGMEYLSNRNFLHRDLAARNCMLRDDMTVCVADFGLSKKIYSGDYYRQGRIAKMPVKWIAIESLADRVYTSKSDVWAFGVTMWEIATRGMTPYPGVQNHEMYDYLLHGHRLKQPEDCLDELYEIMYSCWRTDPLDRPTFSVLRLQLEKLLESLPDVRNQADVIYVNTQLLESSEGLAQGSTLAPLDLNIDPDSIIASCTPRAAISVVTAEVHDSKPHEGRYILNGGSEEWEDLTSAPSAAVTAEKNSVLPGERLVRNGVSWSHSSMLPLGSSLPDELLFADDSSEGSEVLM

Row | inhibition [1] | inhibition [2] | Structure (SMILES)
1 | 8% and 6% | -4% | CCn1c(-c2nonc2N)nc2c(C#CCN)ncc(OCCCN)c21
2 | 0% and -1% | 71% | NC(=O)Cc1ccccc1Oc1nccc(-c2c(-c3ccc(F)cc3)ncn2C2CCNCC2)n1
3 | -1% and -2% | -10% | COc1cc2ncnc(Nc3ccc(C)c(O)c3)c2cc1OC
4 | 1% and -1% | 5% | COc1cc(C=NNc2ncnc3c2cnn3Cc2ccccc2)ccc1O
5 | 22% and 23% | -5% | COc1cc(Nc2nccc(Nc3ccc4c(C)n[nH]c4c3)n2)cc(OC)c1OC
6 | 38% | 5% | COc1cc(Nc2nccc(-c3cnn4ncccc34)n2)cc(OC)c1
7 | 20% | 6% | COc1cc(/C=N/Nc2ncnc3[nH]ncc23)ccc1O
8 | -1% | -4% | CCn1c(-c2nonc2N)nc2ccc(F)cc21
9 | 0% and 2% | 78% | Fc1cccc(COc2ccc(Nc3ncnc4sc(-c5ccco5)cc34)cc2Cl)c1
10 | 0% and -2% | -6% | CCCN1CCC(Oc2cc(Nc3nc(Nc4cccc(F)c4C(N)=O)c4cc[nH]c4n3)c(OC)cc2Cl)CC1
11 | 5% | 27% | O=C1NC(=O)C(c2cccc(Cl)c2)=C1Nc1ccc(Cl)c(C(=O)O)c1
12 | -2% and 0% | 6% | C#Cc1cccc(Nc2ncnc3ccc(OCCCCNCCS(C)(=O)=O)cc23)c1
13 | 0% and -2% | -2% | Cc1ccc(C(=O)NC(C)C)cc1-c1ccc(C(=O)NCC2CC2)cc1
14 | -2% and -1% | 21% | COC(=O)Nc1nc2ccc(Sc3ccc(NC(=O)Nc4cc(C(F)(F)F)ccc4F)cc3)cc2[nH]1
15 | -3% and -4% | 3% | COc1ccc2ncn(-c3cc(O[C@H](C)c4ccccc4C(F)(F)F)c(C(N)=O)s3)c2c1
16 | 5% | 0% | NS(=O)(=O)c1cccc(Nc2cc(-c3ccc(F)cc3)n[nH]2)c1
17 | 0% and 1% | -3% | NS(=O)(=O)c1ccc(-c2cc3ccncc3cc2OCc2ccccc2)cc1
18 | -1% and 0% | -7% | NS(=O)(=O)c1cccc(-c2ccc3c(NC(=O)C4CC4)n[nH]c3c2)c1
19 | -2% | -6% | FC(F)(F)c1ccc(-c2nn3ncccc3c2-c2ccnc(Nc3ccc4c(c3)OCCO4)n2)cc1
20 | 1% and -1% | -2% | CS(=O)(=O)CCNCc1ccc(-c2ccc3ncnc(Nc4ccc(OCc5cccc(C(F)(F)F)c5)cc4)c3c2)o1
21 | 7% and 1% | 61% | CNC(=O)c1cccc(C#Cc2cncnc2Nc2ccc(OCc3cccc(F)c3)c(Cl)c2)c1
22 | -2% and -3% | 78% | N#Cc1c(NC(=O)c2cccc3ccccc23)sc2c1CCCC2
